Experimental data: patent US11033604B2, “Reagents and methods for treating bacterial infection” (priority 2018, dated 2021)
Non-standard residues stand in square brackets, D forms with d. No end group written: not given here.

Columns and labels:
SA = test: Crystal violet biofilm assay; type: cell-based, Staphylococcus aureus
Description: Furthermore, these same inhibitors are active against EC, SE, and SM.

[1] = system: E. coli UTI89 WT biofilms; test: In situ ThT assay of EM amyloid in E. coli UTI89 WT biofilms; type: cell-based
Protocol: (§1) FIG. 12. […] Error bars indicate standard deviation of the mean of at least three replicates. Significance values are p<0.05: *, p<0.01: **, p<0.001: ***.
(§2) Biofilms of the cystitis E. coli isolate UTI89 were cultivated in YESCA broth with 4% DMSO at 26° C., conditions which are known to elicit increased curli biogenesis. Varying doses of the dimeric α-sheet peptide, AP193, were also added to the cultures at the time of inoculation. AP193 is covalently linked through a single cysteine in each of its constituent monomers. Since DMSO was already present in the biofilm growth medium, AP193 stocks were supplemented with 4% DMSO to improve solubility, and the buffer solution was maintained at high pH (sodium carbonate, pH 9.6) to retain oxidation of the disulfide bond. After 48 hours of growth, biofilms were washed, homogenized, and stained with ThT.
(§3) UTI89 biofilms were also cultivated in the presence of an unstructured peptide, P1, which retains a mixture of L- and D-amino acids but lacks the α-sheet secondary structure of AP193.

UTI89 ΔcsgA biofilms = test: In situ ThT assay in UTI89 ΔcsgA knockout biofilms; type: cell-based, E. coli; conditions: UTI89 ΔcsgA knockout strain
Protocol: as §1, §2, §3

E. coli UTI89 = test: Bacterial growth and biofilm versus planktonic proportion; type: cell-based; conditions: UTI89 biofilm cultures
Description: as §1, §3

csgA expression = test: RT-qPCR of csgA expression in biofilms; type: cell-based, E. coli; conditions: biofilms grown with peptide vs peptide-free controls
Description: as §3

[2] = system: bacterial biofilm on glass disks; test: Biofilm formation on α-sheet peptide coated glass disk; type: cell-based; conditions: polydopamine-grafted peptide, FIG. 17 (dimeric AP193)
Description: FIG. 17. Bacterial adherence and growth of biofilm on glass disks and decreased adhesion of bacteria (GFP signal) and biofilm and amyloid formation (Brightfield image) when glass is coated with α-sheet peptides, shown for dimeric AP193. This is a model for biofilm formation on implanted devices such as prosthetic joints.
We have conjugated α-sheet peptides to other functional molecules to enhance their efficacy at the site of biofilm infection, i.e., the surface of biomedical implants. To this end, we used a polydopamine (PDA) coating approach to facilitate attachment of α-sheet peptides to biomedical implant materials. […]
For α-sheet peptide grafting, 0.5 mg/mL peptide (e.g. AP90, AP193, or P1 as a control) was dissolved in 10 mM Tris pH 8.0 and then applied to PDA-coated substrates for overnight reaction (18 hours). […] First, the concentration of peptide remaining in solution after conjugation was measured by NanoOrange™ assay to determine coupling efficiency and surface density. Second, accessibility of α-sheet peptides on the surface was determined by immunofluorescence; PGPMs were blocked with 5% BSA solution for 12 h, incubated with AlexaFluor®568-conjugated Pac53 antibody (which recognizes α-sheet peptides), and then washed and imaged on a fluorescent microscope to ensure attachment to the disks. […]

CsgA = CsgA (Escherichia coli, UniProt P28307); conditions: dimeric AP193, 14:1 molar ratio (CsgA:AP193), 150 h, 25° C.
CsgA, sequence (P28307 21-151): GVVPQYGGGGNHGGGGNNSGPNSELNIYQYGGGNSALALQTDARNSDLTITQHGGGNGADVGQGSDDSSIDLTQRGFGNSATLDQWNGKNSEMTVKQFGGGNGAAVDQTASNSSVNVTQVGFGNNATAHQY
Protocol: A) CsgA aggregation monitored by ThT fluorescence. […] Error bars represent one standard deviation from the mean of three replicates.
For inhibition assays with CsgA, purified, recombinant CsgA was desalted from a stock solution containing 8 M Gnd HCl into 50 mM potassium phosphate buffer (KPi, pH 6.2) and diluted to a final concentration of 0.2 mg/m L. Samples were aliquoted into 96 well plates and incubated quiescently at 25° C. Plates were removed for periodic measurements in a plate reader, where the fluorescence of Thioflavin T (ThT) was used to monitor protein fibril formation in real time. ThT fluoresces upon binding p-sheet structure and serves as a proxy for amyloid fibril content.
In some samples, the dimeric α-sheet peptide AP193 was also added to the mixture at a molar ratio of 14:1 (CsgA:AP193). After 150 h incubation, the extent of amyloid formation in the two samples was measured by ThT fluorescence (FIG. 11C).

Substance	Biofilm inhibition (crystal violet, FIG. 10) (SA)	EM amyloid content of biofilm (ThT fluorescence), varying doses ([1]; YESCA broth + 4% DMSO, 26° C., 48 h)	ThT fluorescence of biofilm at highest dose ([1]; highest dose)	ThT fluorescence of biofilm (UTI89 ΔcsgA biofilms)	Bacterial killing / growth inhibition (E. coli UTI89)	csgA expression (RT-qPCR) (csgA expression)	Amount of bacterial biofilm on peptide-coated glass disk [2]	CsgA fibril formation (endpoint ThT fluorescence) (CsgA)
RGEmNlSwMNEYSGWtMnLkMGR (RGEMNLSWMNEYSGWTMNLKMGR; not fully specified (residues 4, 6, 8, 16, 18, 20); printed as RGEmNlSwMNEYSGWtMnLkMGR) [AP90]	inhibition	–	–	–	–	–	–	–
RGEmNyFwMNEYYGWtMnCkMGR (RGE[dM]N[dY]F[dW]MNEYYGW[dT]M[dN]C[dK]MGR) [AP193]	–	dose-dependent reduction in ThT fluorescence	reduced the ThT fluorescence of WT biofilms to levels near those of the ΔcsgA strain	no significant changes	does not kill bacteria or inhibit their growth	did not reveal any significant changes in csgA expression	dramatic drop in the amount of bacterial biofilm	significantly reduced
